Legend:
FynT enzyme = molecular target: T1, FynT enzyme (Homo sapiens, UniProt P06241); assay: FynT enzyme activity, IMAP fluorescence polarization assay; type: biochemical; conditions: 60 min pre-incubation, 0.2 μM ATP (Km)
T1 construct: purchased Biomol SE-287
In short: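 FynT (125 ng/mL final) pre-incubated 60 min at RT with compound (10 μM–0.316 nM, 1% DMSO) in pH 7.2 Tris/Mg/Mn buffer, then 100 nM fluorescein p34cdc2 peptide and 0.2 μM ATP (Km) for 2 h at RT. IMAP binding FP read at 535 nm; EC50 from curve fit versus ±ATP controls.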

Btk enzyme (His-Btk) = molecular target: T2, Btk enzyme (His-Btk) (Homo sapiens, UniProt Q06187); assay: Btk enzyme activity, IMAP fluorescence polarization assay; type: biochemical; conditions: 60 min pre-incubation, 5 μM ATP (Km); bin bounds given in nM
T2 construct: His; purchased Millipore 14-552
Excerpt: Inhibition of kinase activity can be measured using the Immobilized Metal Assay for Phosphochemicals (IMAP) assay. IMAP is a homogeneous fluorescence polarization (FP) assay based on affinity capture of phosphorylated peptide substrates. IMAP uses fluorescein-labeled peptide substrates that, upon phosphorylation by a protein kinase, bind to so-called IMAP nanoparticles, which are derivatized with trivalent metal complexes. Binding causes a change in the rate of the molecular motion of the peptide, and results in an increase in the FP value observed for the fluorescein label attached to the substrate peptide (Gaudet et al. A homogeneous fluorescence polarization assay adaptable for a range of protein serine/threonine and tyrosine kinases. J. Biomol. Screen (2003) 8, 164-175).
Btk enzyme activity is measured using the IMAP (immobilized metal ion affinity-based fluorescence polarization) assay as outlined below.
Btk enzyme (His-Btk (Millipore catalog#14-552), is diluted to 0.4 U/mL in KR buffer (10 mM Tris-HCl, 10 mM MgCl2, 0.01% Tween-20, 0.05% NaN3, 1 mM DTT, 2 mM MnCl2, pH 7.2).
Serial dilution log 10 from 2 mM to 63.2 nM of test compounds are made in 100% DMSO. The dilutions in DMSO are then diluted 50-fold in KR-buffer. Final compound concentration range in the assay from 10 μM to 0.316 nM.
5 μL/well of test compound in KR buffer (final DMSO concentration in the assay is 1%) is mixed with 5 μl/well of 0.4 U/mL Btk enzyme (final concentration in the assay is 0.1 U/mL). Test compounds and Btk enzyme are pre-incubated 60 minutes at room temperature, before adding 5 μL/well of 200 nM Fluorescin labeled substrate peptide (Blk/Lyntide substrate, e.g. #R7188/#R7233, Molecular Devices) in KR-buffer. Final peptide substrate concentration in assay is 50 nM. The kinase assay is started by adding 5 μL/well of 20 μM ATP in KR-buffer (final ATP concentration is 5 μM ATP, Km ATP in Btk IMAP assay). Following incubation for 2 h at room temperature the enzyme reaction is stopped by adding 40 μL/well IMAP Progressive Binding Solution (according to suppliers (Molecular Devices) protocol using 75% 1× buffer A and 25% 1× buffer B with 1:600 Progressive Binding Solution). After 60 min incubation at room temperature in the dark the FP signal is read. Fluorescence at 535 nm is measured using parallel and perpendicular filters to determine differences in rotation due to binding of the phosphorylated substrate peptide to the beads. Values are calculated as percentage of the difference in readout (ΔmPi) of the controls with and without ATP. EC50 values are determined by curve fitting of the experimental results using Activity Base.

T1 sequence (P06241 1-534 isoform P06241-2): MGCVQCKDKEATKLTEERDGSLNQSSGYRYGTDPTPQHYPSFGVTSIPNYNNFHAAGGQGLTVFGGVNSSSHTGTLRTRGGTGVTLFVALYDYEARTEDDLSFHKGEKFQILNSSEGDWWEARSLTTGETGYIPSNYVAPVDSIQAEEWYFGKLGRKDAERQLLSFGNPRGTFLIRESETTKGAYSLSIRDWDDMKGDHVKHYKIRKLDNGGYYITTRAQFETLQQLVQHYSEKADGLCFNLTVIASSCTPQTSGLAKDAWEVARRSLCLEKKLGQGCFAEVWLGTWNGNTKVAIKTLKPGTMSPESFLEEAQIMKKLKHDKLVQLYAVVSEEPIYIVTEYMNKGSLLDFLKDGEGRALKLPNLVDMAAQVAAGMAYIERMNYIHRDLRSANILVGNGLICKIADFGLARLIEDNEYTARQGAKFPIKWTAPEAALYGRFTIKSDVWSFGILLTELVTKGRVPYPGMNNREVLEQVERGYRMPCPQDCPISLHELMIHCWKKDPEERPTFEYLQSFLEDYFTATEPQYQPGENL
T2 sequence (Q06187 whole entry): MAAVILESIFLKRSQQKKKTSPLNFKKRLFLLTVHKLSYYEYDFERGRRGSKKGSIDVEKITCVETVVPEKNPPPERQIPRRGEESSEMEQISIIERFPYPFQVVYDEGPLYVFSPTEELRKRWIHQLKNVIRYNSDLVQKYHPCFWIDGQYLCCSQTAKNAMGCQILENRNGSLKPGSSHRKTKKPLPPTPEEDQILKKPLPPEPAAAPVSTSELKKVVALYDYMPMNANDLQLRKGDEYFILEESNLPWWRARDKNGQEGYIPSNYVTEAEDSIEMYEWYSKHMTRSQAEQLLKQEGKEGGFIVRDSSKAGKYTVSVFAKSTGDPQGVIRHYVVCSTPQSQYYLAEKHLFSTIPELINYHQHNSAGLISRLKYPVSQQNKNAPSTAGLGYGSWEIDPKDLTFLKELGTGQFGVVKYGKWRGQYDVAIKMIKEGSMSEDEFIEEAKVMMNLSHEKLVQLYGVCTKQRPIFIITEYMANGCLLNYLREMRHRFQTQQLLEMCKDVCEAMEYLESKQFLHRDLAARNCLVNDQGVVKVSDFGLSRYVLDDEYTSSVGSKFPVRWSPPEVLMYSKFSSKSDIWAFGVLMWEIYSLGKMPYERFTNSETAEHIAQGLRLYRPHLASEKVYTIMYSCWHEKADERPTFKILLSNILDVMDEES

COC/C=C/C(=O)N[C@@H](C)c1nc(-c2ccc(C(=O)Nc3cc(C(F)(F)F)ccn3)cc2)c2c(C)nccn12 [Example 6, (S,E)-4-(3-(1-(4-Methoxybut-2-enamido)ethyl)-8-methylimidazo[1,5-a]pyrazin-1-yl)-N-(4-(trifluoromethyl)pyridin-2-yl)benzamide]
EC50 (FynT enzyme): ≥ 1000 nM
EC50 (Btk enzyme (His-Btk)): < 10 nM

Cc1nccn2c([C@@H]3CCCCN3C(=O)/C=C/CN3CCCC3)nc(-c3ccc(C(=O)Nc4cc(C(F)(F)F)ccn4)cc3)c12 [Example 21, (S,E)-4-(8-methyl-3-(1-(4-(pyrrolidin-1-yl)but-2-enoyl)piperidin-2-yl)imidazo[1,5-a]pyrazin-1-yl)-N-(4-(trifluoromethyl)pyridin-2-yl)benzamide]
EC50 (FynT enzyme): ≥ 1000 nM
EC50 (Btk enzyme (His-Btk)): < 10 nM

C=CC(=O)N1CCC[C@H]1c1nc(-c2ccc(C(=O)Nc3cc(C#N)ccn3)cc2)c2c(C)nccn12 [Example 13, (S)-4-(3-(1-Acryloylpyrrolidin-2-yl)-8-methylimidazo[1,5-a]pyrazin-1-yl)-N-(4-cyanopyridin-2-yl)benzamide]
EC50 (FynT enzyme): ≥ 1000 nM
EC50 (Btk enzyme (His-Btk)): < 10 nM

CC#CC(=O)N1CCCC[C@H]1c1nc(-c2ccc(C(=O)Nc3cc(C(F)(F)F)ccn3)cc2)c2c(C)nccn12 [Example 29, (S)-4-(3-(1-but-2-ynoylpiperidin-2-yl)-8-methylimidazo[1,5-a]pyrazin-1-yl)-N-(4-(trifluoromethyl)pyridin-2-yl)benzamide]
EC50 (FynT enzyme): ≥ 1000 nM
EC50 (Btk enzyme (His-Btk)): < 10 nM

CCCc1ccnc(NC(=O)c2ccc(-c3nc([C@H](C)N(C)C(=O)/C=C/CN(C)C)n4ccnc(C)c34)cc2)c1 [Example 18, (S,E)-4-(3-(1-(4-(dimethylamino)-N-methylbut-2-enamido)ethyl)-8-methylimidazo[1,5-a]pyrazin-1-yl)-N-(4-propylpyridin-2-yl)benzamide]
EC50 (FynT enzyme): ≥ 1000 nM
EC50 (Btk enzyme (His-Btk)): < 10 nM
